Experimental data from patent US11129782B2, “Derivatives of PPD useful for coloring hair and skin” (National University of Singapore, priority 2017, dated 2021).

Legend:
[1] = test system: lysine peptide (Ac-RFAAKAA-COOH); test: Direct Peptide Reactivity Assay, lysine peptide; conditions: for % of Lysine depletion, Avg / % of Lysine depletion, Rep 2 / % of Lysine depletion, Rep 3 / Reactivity Class: 1:50; for % of Lysine depletion, Rep 1: peptide 0.02 mM : test chemical 1 mM (1:50); for Reactivity Class: lysine
Procedure: The mass spectrometric analysis was performed by use of a AB SCIEX QTRAP 5500 tandem mass spectrometry (MS/MS) system (AB SCIEX, Framingham, Mass., USA) operating in triple quadrupole positive mode (ESI+) equipped with an AB Sciex Turbo Ion Spray interface. Acquisition and analysis of data were performed with Analyst software ver. 1.6.2 (Applied Biosystems).

IL-8 = IL-8 ELISA on THP-1 cell supernatants; format: cell-based, human; conditions: preliminary ELISA, CV75
Procedure: For cytokine profiling in THP-1, supernatants from wells were collected and then used for cytokine analysis by a Chemokine immunosorbent assay Bio-legend ELISA Max kit. The levels of available IL-8 protein from THP-1 cell supernatants was estimated using this kit which are regulated upon activation of THP-1 model. Surface receptor expression of human CD-86, CD-54, MHC-I and IL-T3 were analyzed by flow cytometry using standard BD FACS analyzer with PE and FITC fluorescent labeled antibodies from Biolegend and e Bioscience.
In order to understand the effect of modified PPD hairdyes on THP-1 immune sensitization, a certain degree of Cytotoxicity at CV75% viable where 25% cell death is required before evaluation of supernatants in THP-1 models for expression of cytokine IL-8 and receptor expression of CD86, CD54, MHC-I and IL-T3 surface receptors upon treatment with standard PPD and modified hair dye compounds. Most allergens show a specific dose-dependent alteration of CD86 and/or CD54 expression or secretion of cytokine profiles. But depending on chemical, the alteration pattern may vary.

SMILES: Nc1ccc(N)cc1 [PPD, para-phenylenediamine, reference compound]
- % of Lysine depletion, Avg ([1]; 20 min): 14.6%
- % of Lysine depletion, Rep 2 ([1]; 20 min): 14.4%
- % of Lysine depletion, Rep 3 ([1]; 20 min): 14.6%
- % of Lysine depletion, Rep 1 ([1]; 20 min): 14.9%
- % of Lysine depletion, Avg ([1]; 24 h): 33.3%
- % of Lysine depletion, Rep 2 ([1]; 24 h): 33.1%
- % of Lysine depletion, Rep 3 ([1]; 24 h): 33.9%
- % of Lysine depletion, Rep 1 ([1]; 24 h): 32.8%
- Reactivity Class ([1]; 20 min): Low
- Reactivity Class ([1]; 24 h): Moderate
- IL-8 expression (IL-8): increased expression
